# Source: PubChem BioAssay AID2060903 (Molecular Pharmacology Branch, DTP, NCI, 2025)
# Test system: 377384-186-R-J1-PDC complex spheroid viability
# Test: Anticancer human tumor 377384-186-R-J1-PDC patient-derived pancreatic carcinoma cell line growth inhibition [RAS]
# Conditions: for IC50: curve of first compound; for viability, T/C: stronger effect = lower value
# Procedure, shortened: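 Agents were tested in combination matrices in half-log decrements from a top concentration at or near clinical Cmax (10 microM if undetermined). Targets were multi-cell spheroids of tumour lines plus HUVEC and MSC stromal cells.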
# [1] = second compound 0.000949 µM, first compound 0.0316 µM
# [2] = second compound 0.000949 µM, first compound 0.1 µM
# [3] = second compound 0.000949 µM, first compound 0.316 µM
# [4] = second compound 0.000949 µM, first compound 1 µM
# [5] = second compound 0.003 µM, first compound 0.0316 µM
# [6] = second compound 0.003 µM, first compound 0.1 µM
# [7] = second compound 0.003 µM, first compound 0.316 µM
# [8] = second compound 0.003 µM, first compound 1 µM
# [9] = second compound 0.00949 µM, first compound 0.0316 µM
# [10] = second compound 0.00949 µM, first compound 0.1 µM
# [11] = second compound 0.00949 µM, first compound 0.316 µM
# [12] = second compound 0.00949 µM, first compound 1 µM
# [13] = second compound 0.03 µM, first compound 0.0316 µM
# [14] = second compound 0.03 µM, first compound 0.1 µM
# [15] = second compound 0.03 µM, first compound 0.316 µM
# [16] = second compound 0.03 µM, first compound 1 µM
# [17] = second compound 0.0949 µM, first compound 0.0316 µM
# [18] = second compound 0.0949 µM, first compound 0.1 µM
# [19] = second compound 0.0949 µM, first compound 0.316 µM
# [20] = second compound 0.0949 µM, first compound 1 µM
# [21] = second compound 0.3 µM, first compound 0.0316 µM
# [22] = second compound 0.3 µM, first compound 0.1 µM
# [23] = second compound 0.3 µM, first compound 0.316 µM
# [24] = second compound 0.3 µM, first compound 1 µM
# 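Further: spheroids exposed to compounds for seven days before readout.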
smiles,measurement,setting,value
CC(=O)OC12COC1CC(O)C1(C)C(=O)C(O)C3=C(C)C(OC(=O)C(O)C(NC(=O)OC(C)(C)C)c4ccccc4)CC(O)(C(OC(=O)c4ccccc4)C21)C3(C)C (stereo unspecified) + CCn1c(-c2cccnc2C(C)OC)c2c3cc(ccc31)N1CCOC(CC(NC(=O)C(C(C)C)N(C)C(=O)C3(F)CCN(C(=O)C#CC(C)(C)N(C)C)CC3)C(=O)N3CCCC(N3)C(=O)OCC(C)(C)C2)C1,IC50,second compound 0.000949 µM,< 31.6 nM
same,IC50,second compound 0.003 µM,< 31.6 nM
same,IC50,second compound 0.00949 µM,< 31.6 nM
same,IC50,second compound 0.03 µM,< 31.6 nM
same,IC50,second compound 0.0949 µM,< 31.6 nM
same,IC50,second compound 0.3 µM,< 31.6 nM
same,"viability, T/C",[1],10.2%
same,"viability, T/C",[2],10.2%
same,"viability, T/C",[3],11%
same,"viability, T/C",[4],14.1%
same,"viability, T/C","second compound 0.000949 µM, first compound 3.16 µM",14.5%
same,"viability, T/C","second compound 0.000949 µM, first compound 10 µM",15.6%
same,"viability, T/C",[5],11.1%
same,"viability, T/C",[6],15.1%
same,"viability, T/C",[7],11%
same,"viability, T/C",[8],12.9%
same,"viability, T/C","second compound 0.003 µM, first compound 3.16 µM",14.7%
same,"viability, T/C","second compound 0.003 µM, first compound 10 µM",15.9%
same,"viability, T/C",[9],10.5%
same,"viability, T/C",[10],11.6%
same,"viability, T/C",[11],12.5%
same,"viability, T/C",[12],12%
same,"viability, T/C","second compound 0.00949 µM, first compound 3.16 µM",13.7%
same,"viability, T/C","second compound 0.00949 µM, first compound 10 µM",14.4%
same,"viability, T/C",[13],9.38%
same,"viability, T/C",[14],11.6%
same,"viability, T/C",[15],12.8%
same,"viability, T/C",[16],12.5%
same,"viability, T/C","second compound 0.03 µM, first compound 3.16 µM",13.4%
same,"viability, T/C","second compound 0.03 µM, first compound 10 µM",15.4%
same,"viability, T/C",[17],9.14%
same,"viability, T/C",[18],10.3%
same,"viability, T/C",[19],12.3%
same,"viability, T/C",[20],12.8%
same,"viability, T/C","second compound 0.0949 µM, first compound 3.16 µM",13.1%
same,"viability, T/C","second compound 0.0949 µM, first compound 10 µM",12.8%
same,"viability, T/C",[21],6.36%
same,"viability, T/C",[22],8.8%
same,"viability, T/C",[23],9.95%
same,"viability, T/C",[24],11.7%
same,"viability, T/C","second compound 0.3 µM, first compound 3.16 µM",12.3%
same,"viability, T/C","second compound 0.3 µM, first compound 10 µM",12%
CCc1c2c(nc3ccc(O)cc13)-c1cc3c(c(=O)n1C2)COC(=O)[C@]3(O)CC + CCn1c(-c2cccnc2C(C)OC)c2c3cc(ccc31)N1CCOC(CC(NC(=O)C(C(C)C)N(C)C(=O)C3(F)CCN(C(=O)C#CC(C)(C)N(C)C)CC3)C(=O)N3CCCC(N3)C(=O)OCC(C)(C)C2)C1,IC50,second compound 0.000949 µM,2.42 nM
same,IC50,second compound 0.003 µM,2 nM
same,IC50,second compound 0.00949 µM,2 nM
same,IC50,second compound 0.03 µM,1.53 nM
same,IC50,second compound 0.0949 µM,< 0.949 nM
same,IC50,second compound 0.3 µM,< 0.949 nM
same,"viability, T/C","second compound 0.000949 µM, first compound 0.000949 µM",65.9%
same,"viability, T/C","second compound 0.000949 µM, first compound 0.003 µM",46.6%
same,"viability, T/C","second compound 0.000949 µM, first compound 0.00949 µM",18.3%
same,"viability, T/C","second compound 0.000949 µM, first compound 0.03 µM",7.36%
same,"viability, T/C","second compound 0.000949 µM, first compound 0.0949 µM",3.93%
same,"viability, T/C","second compound 0.000949 µM, first compound 0.3 µM",1.53%
same,"viability, T/C","second compound 0.003 µM, first compound 0.000949 µM",71.5%
same,"viability, T/C","second compound 0.003 µM, first compound 0.003 µM",37.9%
same,"viability, T/C","second compound 0.003 µM, first compound 0.00949 µM",19.8%
same,"viability, T/C","second compound 0.003 µM, first compound 0.03 µM",6.9%
same,"viability, T/C","second compound 0.003 µM, first compound 0.0949 µM",3.65%
same,"viability, T/C","second compound 0.003 µM, first compound 0.3 µM",2.05%
same,"viability, T/C","second compound 0.00949 µM, first compound 0.000949 µM",75.7%
same,"viability, T/C","second compound 0.00949 µM, first compound 0.003 µM",35.7%
same,"viability, T/C","second compound 0.00949 µM, first compound 0.00949 µM",15.8%
same,"viability, T/C","second compound 0.00949 µM, first compound 0.03 µM",5.59%
same,"viability, T/C","second compound 0.00949 µM, first compound 0.0949 µM",2.54%
same,"viability, T/C","second compound 0.00949 µM, first compound 0.3 µM",1.72%
same,"viability, T/C","second compound 0.03 µM, first compound 0.000949 µM",61.3%
same,"viability, T/C","second compound 0.03 µM, first compound 0.003 µM",34.7%
same,"viability, T/C","second compound 0.03 µM, first compound 0.00949 µM",14.4%
same,"viability, T/C","second compound 0.03 µM, first compound 0.03 µM",8.65%
same,"viability, T/C","second compound 0.03 µM, first compound 0.0949 µM",3.55%
same,"viability, T/C","second compound 0.03 µM, first compound 0.3 µM",1.17%
same,"viability, T/C","second compound 0.0949 µM, first compound 0.000949 µM",49.1%
same,"viability, T/C","second compound 0.0949 µM, first compound 0.003 µM",34.9%
same,"viability, T/C","second compound 0.0949 µM, first compound 0.00949 µM",14.8%
same,"viability, T/C","second compound 0.0949 µM, first compound 0.03 µM",5.24%
same,"viability, T/C","second compound 0.0949 µM, first compound 0.0949 µM",3.02%
same,"viability, T/C","second compound 0.0949 µM, first compound 0.3 µM",1.67%
same,"viability, T/C","second compound 0.3 µM, first compound 0.000949 µM",45.4%
same,"viability, T/C","second compound 0.3 µM, first compound 0.003 µM",30.3%
same,"viability, T/C","second compound 0.3 µM, first compound 0.00949 µM",7.93%
same,"viability, T/C","second compound 0.3 µM, first compound 0.03 µM",4.05%
same,"viability, T/C","second compound 0.3 µM, first compound 0.0949 µM",2.71%
same,"viability, T/C","second compound 0.3 µM, first compound 0.3 µM",1.08%
Nc1ccn(C2OC(CO)C(O)C2(F)F)c(=O)n1 (stereo unspecified) + CCn1c(-c2cccnc2C(C)OC)c2c3cc(ccc31)N1CCOC(CC(NC(=O)C(C(C)C)N(C)C(=O)C3(F)CCN(C(=O)C#CC(C)(C)N(C)C)CC3)C(=O)N3CCCC(N3)C(=O)OCC(C)(C)C2)C1,IC50,second compound 0.000949 µM,11.3 nM
same,IC50,second compound 0.003 µM,9.69 nM
same,IC50,second compound 0.00949 µM,12.6 nM
same,IC50,second compound 0.03 µM,11.8 nM
same,IC50,second compound 0.0949 µM,9.29 nM
same,IC50,second compound 0.3 µM,7.06 nM
same,"viability, T/C","second compound 0.000949 µM, first compound 0.00316 µM",87.1%
same,"viability, T/C","second compound 0.000949 µM, first compound 0.01 µM",53.8%
same,"viability, T/C",[1],19.4%
same,"viability, T/C",[2],7.57%
same,"viability, T/C",[3],5.68%
same,"viability, T/C",[4],3.18%
same,"viability, T/C","second compound 0.003 µM, first compound 0.00316 µM",94.7%
same,"viability, T/C","second compound 0.003 µM, first compound 0.01 µM",48.4%
same,"viability, T/C",[5],23.4%
same,"viability, T/C",[6],9.1%
same,"viability, T/C",[7],4.5%
same,"viability, T/C",[8],3.68%
same,"viability, T/C","second compound 0.00949 µM, first compound 0.00316 µM",96.1%
same,"viability, T/C","second compound 0.00949 µM, first compound 0.01 µM",57.7%
same,"viability, T/C",[9],19.2%
same,"viability, T/C",[10],8.08%
same,"viability, T/C",[11],5.38%
same,"viability, T/C",[12],4.57%
same,"viability, T/C","second compound 0.03 µM, first compound 0.00316 µM",90.9%
same,"viability, T/C","second compound 0.03 µM, first compound 0.01 µM",55.3%
same,"viability, T/C",[13],17.6%
same,"viability, T/C",[14],5.8%
same,"viability, T/C",[15],5.88%
same,"viability, T/C",[16],3.65%
same,"viability, T/C","second compound 0.0949 µM, first compound 0.00316 µM",79.1%
same,"viability, T/C","second compound 0.0949 µM, first compound 0.01 µM",47.8%
same,"viability, T/C",[17],20.1%
same,"viability, T/C",[18],7.12%
same,"viability, T/C",[19],4.37%
same,"viability, T/C",[20],4.2%
same,"viability, T/C","second compound 0.3 µM, first compound 0.00316 µM",71.9%
same,"viability, T/C","second compound 0.3 µM, first compound 0.01 µM",40.6%
same,"viability, T/C",[21],13%
same,"viability, T/C",[22],5.77%
same,"viability, T/C",[23],4.01%
same,"viability, T/C",[24],3.34%
